{
  "source": "patent US6835382B2",
  "about": "“Ii peptide therapeutics to enhance antigen presentation” (University of Massachusetts, priority 1996, dated 2004)",
  "tested_on": "murine E^k MHC class II allele",
  "assay": "antigenic peptide prepulse assay, E^k allele (fixed APC prepulsed with PGCC81-104)",
  "format": "cell-based",
  "conditions": "for Activity in antigenic peptide prepulse assay, E^k (baseline = 1.0): prepulse 1.25 μM antigenic peptide; for Activity in antigenic peptide prepulse assay, E^k (baseline without AE peptide = 1.00): Table 19, prepulse 20 μM PGCC81-104",
  "method": "In a second type of assay, the “peptide prepulse assay”, the antigenic peptide is incubated with paraformaldehyde-fixed APC for 6 h. The APC are washed and incubated for 24 h with the AE101 series homolog and the T cell hybridoma specific for the antigenic peptide. After that incubation, an aliquot of the culture supernatant is transferred to a second culture to measure the relative degree of T hybridoma stimulation, as reflected in the effect of released interleukins on the growth of an interleukin-dependent, indicator cell line, as described above.\nThe two above described assays measure different aspects of the molecular mechanism of the AE101 series of peptides. In the “simultaneous assay”, AE101 series peptides are thought to induce the release of endogenously bound peptides and to permit the binding of the second, specific antigenic peptide which is relatively abundant in the culture fluid. The AE101 series peptides enhance antigenic peptide-specific T cell responses in simultaneous assays. In the “peptide prepulse” assay, the specific antigenic peptide becomes bound to MHC class II molecules on the surface of the fixed APC during the 6 h prepulse incubation. The effect of the AE101 series homologs is then thought to release that antigenic peptide, resulting in an apparent suppression of the immune response.\nThe AE101 series peptides are thought to contact the MHC class II molecules at a discrete site outside the antigenic peptide-binding groove. AE101 peptide binding to this “Ii-KEY” site is thought to induce a conformational change in the MHC class II molecules accelerating the dissociation of previously bound antigenic peptide. […] The AE101 series peptides thus inhibit antigenic peptide-specific T cell responses in the “peptide prepulse” assays.\nAntigenic peptide-specific T cell activation was measured by the following procedure. Mitomycin C-treated A20 cells (A^dE^d) or CH27 cells APC (A^kE^k) were generated by incubating 5×10^6 cells/mL for 20 min at 37° C. with 0.025 mg/mL of mitomycin C (Sigma) in Dulbecco's Modified Eaglel's Medium (DMEM)/10 mM N-2(hydroxyethylpiperazine-N″[2-ethanesulfonic acid] (HEPES), followed by two washes with four volumes of DMEM-5% fetal calf serum (FCS), 10 mM HEPES. Fixed APC were generated by treating 1×10^6 cells/mL for 5 min with 0.5% paraformaldehyde in PBS (pH 7.2), followed by two washes with four volumes of DMEM-10% FCS, 10 mM HEPES. T cell hybridomas were irradiated 2200 rads before each assay.\nThe “peptide prepulse assay” was carried out under essentially the same conditions as described for the “simultaneous assay” with the following modifications. Fixed APC were first incubated for 6 h at 1×10^6 cells/mL in complete DMEM-5% FCS in 24-well microculture plates (1 mL/well) with antigenic peptide, followed by four washes with 10 volumes of DMEM-5% FCS. The cells were then exposed to varying concentrations of AE101 series peptide (64 μM, 16 μM, 4 μM, and 1 μM) for 24 h in the presence of the T cell hybridoma specific to the antigenic peptide. Interleukin release from these cultures was measured by proliferation of HT-2 cells to interleukins in supernatants transferred from the primary culture. Generally, a single dose of 64 μM of each AE101 series peptide was used. The baseline T cell response was measured by culturing T hybridoma cells with the antigenic peptide-prepulsed APC in the absence of AE101 series peptides.\nTable 19: Activities of C-terminal truncation analogs of AE101 in an antigenic peptide prepulse assay. […] Paraformaldehyde-treated APC (fixed APC) expressing MHC class II molecules were incubated with antigenic peptide for 6 h (HEL106-116 for E^d and PGCC81-104 for E^k). After this incubation, the prepulsed APC were washed and cultured with T hybridoma cells and AE101 series peptides. The antigenic peptide concentration during the prepulse was 12 μM for Ed and 20 μM for E^k. The AE101 series peptide concentrations were 64 μM for E^d and 16 μM for E^k. […]",
  "key": {"[1]": {"conditions": "Table 25, AE peptide 64 μM, prepulse 2.5 μM antigenic peptide, supernatant 1:10"}, "[2]": {"conditions": "Table 26, AE peptide 64 μM, supernatant 1:8"}, "[3]": {"conditions": "Table 22, AE peptide 16 μM, prepulse 20 μM antigenic peptide, supernatant 1:2"}, "[4]": {"conditions": "Table 24, AE peptide 64 μM, prepulse 0.625 μM antigenic peptide, supernatant 1:8"}, "[5]": {"conditions": "AE peptide 16 μM, supernatant 1:2"}, "[6]": {"conditions": "Table 20, AE peptide 16 μM, prepulse 20 μM antigenic peptide, supernatant 1:2"}},
  "note": "Non-standard residues stand in square brackets, D forms with d. Cit = NC(=O)NCCC[C@H](N)C(=O)O; Orn = NCCC[C@H](N)C(=O)O",
  "data": [
    {"substance": "Ac-LRMKLP F-NH2 (Ac-LRMKLPF-NH2) [AE248]", "values": [
      {"measurement": "Activity in antigenic peptide prepulse assay, E^k (baseline = 1.00)", "setting": "[1]", "value": 0.98}
    ]},
    {"substance": "Ac-LRMKLP N-NH2 (Ac-LRMKLPN-NH2) [AE246]", "values": [
      {"measurement": "Activity in antigenic peptide prepulse assay, E^k (baseline = 1.0)", "setting": "[2]", "value": 0.98}
    ]},
    {"substance": "Ac-LRMKLP k-NH2 [AE166]", "values": [
      {"measurement": "Activity in antigenic peptide prepulse assay, E^k (baseline = 1.00)", "setting": "[3]", "value": 0.15},
      {"measurement": "Activity in antigenic peptide prepulse assay, E^k (baseline = 1.00)", "setting": "[4]", "value": 0.83}
    ]},
    {"substance": "Ac-LRMKLPK-NH2 [AE114]", "values": [
      {"measurement": "Activity in antigenic peptide prepulse assay, E^k (baseline = 1.00)", "setting": "[3]", "value": 0.15},
      {"measurement": "Activity in antigenic peptide prepulse assay, E^k (baseline = 1)", "setting": "Table 23, as printed: antigenic peptide prepulse 64 μM, AE peptide 1:8 μM, supernatant 1:2", "value": 0.78},
      {"measurement": "Activity in antigenic peptide prepulse assay, E^k (baseline = 1.00)", "setting": "[4]", "value": 0.78},
      {"measurement": "Activity in antigenic peptide prepulse assay, E^k (baseline = 1.00)", "setting": "[1]", "value": 0.79},
      {"measurement": "Activity in antigenic peptide prepulse assay, E^k (baseline = 1.0)", "setting": "[2]", "value": 0.98},
      {"measurement": "T cell response relative to baseline without AE peptide (None = 1.0), E^k", "setting": "Table 27, antigenic peptide prepulse 1.25 μM, AE101 series peptide 64 μM, HT-2 supernatant dilution 1:8", "value": 0.69},
      {"measurement": "Activity in antigenic peptide prepulse assay, E^k (baseline = 1.0)", "setting": "Table 28, AE peptide 64 μM, supernatant 1:4", "value": 0.78}
    ]},
    {"substance": "Ac-LRMKLPKPPK-NH2 [AE168]", "values": [
      {"measurement": "Activity in antigenic peptide prepulse assay, E^k (baseline without AE peptide = 1.00)", "setting": "[5]", "value": 0.01}
    ]},
    {"substance": "Ac-LRMKLPKPPP-NH2 [AE167]", "values": [
      {"measurement": "Activity in antigenic peptide prepulse assay, E^k (baseline without AE peptide = 1.00)", "setting": "[5]", "value": 0.01}
    ]},
    {"substance": "Ac-LRMKLP[Cit]-NH2 [AE241]", "values": [
      {"measurement": "Activity in antigenic peptide prepulse assay, E^k (baseline = 1.0)", "setting": "[2]", "value": 0.99}
    ]},
    {"substance": "Ac-LRNKNPF-NH2 [AE348]", "values": [
      {"measurement": "Activity in antigenic peptide prepulse assay, E^k (baseline = 1.00)", "setting": "[1]", "value": 0.72}
    ]},
    {"substance": "Ac-LRNKNPK-NH2 [AE349]", "values": [
      {"measurement": "Activity in antigenic peptide prepulse assay, E^k (baseline = 1.00)", "setting": "[1]", "value": 0.81}
    ]},
    {"substance": "Ac-LR[Orn]KLPK-NH2 [AE195]", "values": [
      {"measurement": "Activity in antigenic peptide prepulse assay, E^k (baseline = 1.00)", "setting": "[1]", "value": 0.74}
    ]},
    {"substance": "Ac-L[Cit]MKNPK-NH2 [AE342]", "values": [
      {"measurement": "Activity in antigenic peptide prepulse assay, E^k (baseline = 1.00)", "setting": "[1]", "value": 1.10}
    ]},
    {"substance": "Ac-L[Cit]NKLPK-NH2 [AE343]", "values": [
      {"measurement": "Activity in antigenic peptide prepulse assay, E^k (baseline = 1.00)", "setting": "[1]", "value": 0.90}
    ]},
    {"substance": "Ac-Y D MKLPKSAK-NH2 [AE135]", "values": [
      {"measurement": "Activity in antigenic peptide prepulse assay, E^k (baseline = 1.00)", "setting": "[6]", "value": 0.95}
    ]},
    {"substance": "Ac-Y E MKLPKSAK-NH2 [AE136]", "values": [
      {"measurement": "Activity in antigenic peptide prepulse assay, E^k (baseline = 1.00)", "setting": "[6]", "value": 0.97}
    ]},
    {"substance": "Ac-Y F MKLPKSAK-NH2 [AE139]", "values": [
      {"measurement": "Activity in antigenic peptide prepulse assay, E^k (baseline = 1.00)", "setting": "[6]", "value": 0.38}
    ]},
    {"substance": "Ac-Y H MKLPKSAK-NH2 [AE133]", "values": [
      {"measurement": "Activity in antigenic peptide prepulse assay, E^k (baseline = 1.00)", "setting": "[6]", "value": 0.86}
    ]},
    {"substance": "Ac-Y K MKLPKSAK-NH2 [AE134]", "values": [
      {"measurement": "Activity in antigenic peptide prepulse assay, E^k (baseline = 1.00)", "setting": "[6]", "value": 0.43},
      {"measurement": "Activity in antigenic peptide prepulse assay, E^k (baseline = 1.0)", "setting": "[2]", "value": 0.98}
    ]},
    {"substance": "Ac-Y L MKLPKSAK-NH2 [AE142]", "values": [
      {"measurement": "Activity in antigenic peptide prepulse assay, E^k (baseline = 1.00)", "setting": "[6]", "value": 0.46}
    ]},
    {"substance": "Ac-Y M MKLPKSAK-NH2 [AE141]", "values": [
      {"measurement": "Activity in antigenic peptide prepulse assay, E^k (baseline = 1.00)", "setting": "[6]", "value": 0.52}
    ]},
    {"substance": "Ac-Y N MKLPKSAK-NH2 [AE137]", "values": [
      {"measurement": "Activity in antigenic peptide prepulse assay, E^k (baseline = 1.00)", "setting": "[6]", "value": 0.72}
    ]},
    {"substance": "Ac-Y Q MKLPKSAK-NH2 [AE138]", "values": [
      {"measurement": "Activity in antigenic peptide prepulse assay, E^k (baseline = 1.00)", "setting": "[6]", "value": 0.85}
    ]},
    {"substance": "Ac-Y Y MKLPKSAK-NH2 [AE140]", "values": [
      {"measurement": "Activity in antigenic peptide prepulse assay, E^k (baseline = 1.00)", "setting": "[6]", "value": 0.79}
    ]},
    {"substance": "Ac-YAMKLPKSAK-NH2 [AE121]", "values": [
      {"measurement": "Activity in antigenic peptide prepulse assay, E^k (baseline = 1.00)", "setting": "[6]", "value": 0.59}
    ]},
    {"substance": "Ac-YRM-NH2 [AE118]", "values": [
      {"measurement": "Activity in antigenic peptide prepulse assay, E^k (baseline without AE peptide = 1.00)", "setting": "[5]", "value": 0.35}
    ]},
    {"substance": "Ac-YRMK-NH2 [AE117]", "values": [
      {"measurement": "Activity in antigenic peptide prepulse assay, E^k (baseline without AE peptide = 1.00)", "setting": "[5]", "value": 0.09}
    ]},
    {"substance": "Ac-YRMKL hydrP KSAK-NH2 (Ac-YRMKL[hydrP]KSAK-NH2) [AE143]", "values": [
      {"measurement": "Activity in antigenic peptide prepulse assay, E^k (baseline = 1.00)", "setting": "Table 21, AE peptide 16 μM, prepulse 20 μM antigenic peptide, supernatant 1:2", "value": 0.10}
    ]},
    {"substance": "Ac-YRMKL-NH2 [AE116]", "values": [
      {"measurement": "Activity in antigenic peptide prepulse assay, E^k (baseline without AE peptide = 1.00)", "setting": "[5]", "value": 0.10}
    ]},
    {"substance": "Ac-YRMKLP-NH2 [AE115]", "values": [
      {"measurement": "Activity in antigenic peptide prepulse assay, E^k (baseline without AE peptide = 1.00)", "setting": "[5]", "value": 0.07}
    ]},
    {"substance": "Ac-YRMKLPK-NH2 [AE113]", "values": [
      {"measurement": "Activity in antigenic peptide prepulse assay, E^k (baseline without AE peptide = 1.00)", "setting": "[5]", "value": 0.04}
    ]}
  ]
}
